Experimental findings from ChEMBL document CHEMBL1142005, “Utilization of a nitrobenzoxadiazole (NBD) fluorophore in the design of a Grb2 SH2 domain-binding peptide mimetic” (Bioorg Med Chem Lett, 2005) are described below.

For assay [1], the target named is T1, Growth factor receptor-bound protein 2 (Homo sapiens, UniProt P62993). Nature of the assay: Apparent dissociation constant for human growth factor receptor bound protein 2.
Target sequence in this assay (P62993 whole entry): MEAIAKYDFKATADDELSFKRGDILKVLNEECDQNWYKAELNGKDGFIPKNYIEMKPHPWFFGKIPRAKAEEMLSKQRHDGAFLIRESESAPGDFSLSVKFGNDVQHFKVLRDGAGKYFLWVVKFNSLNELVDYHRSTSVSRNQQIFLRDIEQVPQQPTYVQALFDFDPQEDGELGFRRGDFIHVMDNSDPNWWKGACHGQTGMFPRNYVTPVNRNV
Assay [2] addresses T1, Growth factor receptor-bound protein 2. Nature of the assay: First order rate constant (kon) for human growth factor receptor bound protein 2.
Target sequence in this assay (P62993 whole entry, looked up): as the sequence (P62993 whole entry) above
Assay [3] shares this target. In words: Inhibitory concentration for human growth factor receptor bound protein 2.
Target sequence in this assay (P62993 whole entry): as above
The target is the same in assay [4]. In words: First order rate constant (koff) for human growth factor receptor bound protein 2.
Target sequence in this assay (P62993 whole entry, looked up): as the sequence (P62993 whole entry) above

In the case of `NC(=O)C[C@H](NC(=O)C1(NC(=O)[C@@H](CC(=O)O)Cc2ccc(CP(=O)(O)O)cc2)CCCCC1)C(=O)NCCNc1ccc([N+](=O)[O-])c2nonc12`, the Kd in assay [1] was 119 nM. Further, the kon (commonly a measure of how fast the partners come together) in assay [2] was 1.18e+06 1/M1/S. For the same compound, in assay [3], the IC50 (in general, the midpoint of a concentration-inhibition curve) was found to be 167 nM. The k off in assay [4] worked out at 0.14 s⁻¹.
As to `NC(=O)C[C@H](NC(=O)C1(NC(=O)[C@@H](CC(=O)O)Cc2ccc(CP(=O)(O)O)cc2)CCCCC1)C(=O)NCCCc1cccc2ccccc12`, the Kd in assay [1] is 23.8 nM. Moreover, in assay [2], the on-rate constant (kon) is 4.18e+06 1/M1/S. This compound came in with a k off in assay [4] of 0.0991 s⁻¹.
